# Reference: the supplement of paper PMC13380429
# Key:
# Conditions in all cases: 72 h
# HepG2 [1] = experiment: relative viability EC50 (midpoint between 100% and the lowest measured viability); higher = less toxic
# Calu-3 [2] = experiment: as above
# U2OS [3] = experiment: as above
# Caco-2 [4] = experiment: as above
# Vero E6 [5] = experiment: as above
# HepG2 [6] = experiment: drug sensitivity score (DSS) for viability; higher = more toxic; extreme values may be limits of the assay
# Calu-3 [7] = experiment: as above
# U2OS [8] = experiment: as above
# Caco-2 [9] = experiment: as above
# Vero E6 [10] = experiment: as above
# HepG2 [11] = experiment: cell viability relative to DMSO; higher = less toxic
# Calu-3 [12] = experiment: as above
# U2OS [13] = experiment: as above
# Caco-2 [14] = experiment: as above
# Vero E6 [15] = experiment: as above
SMILES,relative viability EC50 (HepG2 [1]),relative viability EC50 (Calu-3 [2]),relative viability EC50 (U2OS [3]),relative viability EC50 (Caco-2 [4]),relative viability EC50 (Vero E6 [5]),drug sensitivity score (HepG2 [6]),drug sensitivity score (Calu-3 [7]),drug sensitivity score (U2OS [8]),drug sensitivity score (Caco-2 [9]),drug sensitivity score (Vero E6 [10]),cell viability (HepG2 [11]; 1 nM),cell viability (HepG2 [11]; 10 nM),cell viability (HepG2 [11]; 100 nM),cell viability (HepG2 [11]; 1000 nM),cell viability (HepG2 [11]; 10000 nM),cell viability (Calu-3 [12]; 1 nM),cell viability (Calu-3 [12]; 10 nM),cell viability (Calu-3 [12]; 100 nM),cell viability (Calu-3 [12]; 1000 nM),cell viability (Calu-3 [12]; 10000 nM),cell viability (U2OS [13]; 1 nM),cell viability (U2OS [13]; 10 nM),cell viability (U2OS [13]; 100 nM),cell viability (U2OS [13]; 1000 nM),cell viability (U2OS [13]; 10000 nM),cell viability (Caco-2 [14]; 1 nM),cell viability (Caco-2 [14]; 10 nM),cell viability (Caco-2 [14]; 100 nM),cell viability (Caco-2 [14]; 1000 nM),cell viability (Caco-2 [14]; 10000 nM),cell viability (Vero E6 [15]; 1 nM),cell viability (Vero E6 [15]; 10 nM),cell viability (Vero E6 [15]; 100 nM),cell viability (Vero E6 [15]; 1000 nM),cell viability (Vero E6 [15]; 10000 nM)
COc1ccc2c3c1O[C@H]1C[C@@H](O)C=C[C@@]31CCN(C)C2 [galantamine],> 10 µM,> 10 µM,> 10 µM,> 10 µM,> 10 µM,0,0,0,0,0,84.5%,105%,85.8%,102%,100%,96.9%,91.2%,103%,104%,99.9%,101%,95.4%,96.5%,104%,104%,90.2%,104%,106%,112%,108%,102%,99.1%,103%,90.8%,93.6%
N[C@@H](Cc1cc(-c2ccc(Cl)cc2Cl)cc(CP(=O)(O)O)c1O)C(=O)O [SDZ-220-040],> 10 µM,> 10 µM,> 10 µM,> 10 µM,> 10 µM,0,0,0,0,0,97.4%,108%,99.2%,104%,89.1%,105%,104%,98.2%,108%,110%,105%,98.6%,103%,98.2%,100%,103%,99.5%,94.3%,94.3%,102%,98.7%,102%,106%,104%,100%
C[C@H](NCc1ccc(OCc2cccc(F)c2)cc1)C(N)=O [safinamide],> 10 µM,> 10 µM,> 10 µM,> 10 µM,> 10 µM,0,0,0,0,0,98.1%,92.5%,98.4%,93.4%,96.6%,95%,101%,92.2%,102%,108%,94.2%,102%,99%,105%,108%,97.9%,97.4%,101%,102%,100%,101%,89.8%,99.5%,97.2%,100%
CCn1c(N)c(C(=O)NC)c(=O)c2ccc(C#C[C@@](C)(O)COC)nc21,> 10 µM,> 10 µM,> 10 µM,> 10 µM,> 10 µM,0,0,0,0,0,92.6%,102%,93.2%,105%,104%,89.4%,100%,103%,98.3%,109%,102%,96.9%,98.3%,97.8%,97.4%,105%,92.8%,104%,94.2%,92.5%,94.1%,98.6%,94.8%,99.1%,104%
COC1CCN(c2cccc(-c3cc(NC(C)=O)nc(-n4nc(C)cc4C)n3)n2)CC1 [TC-G-1004],1.12 µM,> 10 µM,> 10 µM,2.88 µM,> 10 µM,5.5,0,0,4.8,0.1,84.7%,101%,75.3%,90.9%,44%,103%,94.9%,103%,91.8%,93.1%,105%,97.6%,104%,102%,95%,106%,89.3%,111%,96.9%,20.7%,103%,107%,101%,104%,86.7%
"CCNC1(C(N)=O)CCN(c2ncnc3c2nc(-c2ccccc2Cl)n3-c2ccc(Cl)cc2)CC1 [CP-945,598]",> 10 µM,> 10 µM,> 10 µM,> 10 µM,> 10 µM,0.4,0,0,3.1,0,103%,95.6%,100%,95.3%,86.6%,109%,102%,97.5%,108%,104%,104%,104%,101%,98.1%,95.7%,96.2%,98.9%,88.3%,80.7%,89.3%,101%,103%,98.6%,101%,104%
CC(C)SC(=N)N [S-isopropylisothiourea],> 10 µM,> 10 µM,> 10 µM,> 10 µM,> 10 µM,0,0.5,0,0,0,101%,109%,103%,94.5%,108%,100%,99.5%,102%,97.1%,84.8%,96.9%,98.2%,96.3%,103%,102%,99%,95%,96.7%,105%,91.9%,103%,99.2%,99.5%,89.9%,97.2%
